Measured values from patent US20180346505A1, “MONONUCLEOTIDES HAVING A BIOREVERSIBLE DISULFIDE GROUP” (priority 2014, published 2018).
Read-outs that look alike come from different tables or passages of the source.

Assays:
GT1b (Con1) HCV replicon = assay: HCV replicon assay, wild type GT1b (Con1), luciferase based, stable format; type: cell-based, hepatitis C virus; conditions: Huh-7 cells
Procedure: (§1) The antiviral activity of the test compounds was assessed in the wild type GT1b (Con1), GT1a (H77), and GT1b/2a, GT1b/3a, GT1b/4a and GT1b/5a NS5B chimeric replicons, as well as the NS5B mutant replicons listed in Table 2a and 2b.
(§2) All the replicon assays were luciferase based in Huh-7 cells, either in stable format (GT1b and GT1a) or by transient transfection by electroporation (chimeric and mutant replicons). For a standard HCV replicon assay, stable or transiently transfected Huh-7 cells were seeded in 96-well plates (5,000 cells/well), cultured in DMEM containing 10% FBS, and incubated at 37° C., 5% CO2. On the following day, test compounds were diluted with assay media and added to the appropriate wells (final DMSO concentration in the cell culture medium was 0.5%). Assay reference positive control was included in each run to ensure assay performance. Cells were incubated at 37° C., 5% CO2 for 72 hours, at which time the cells were still sub-confluent. The antiviral activity was determined by measuring replicon reporter firefly luciferase activity using Bright Glo kit in accordance with the protocol provided by the supplier (Promega). The toxicity of the test compounds was assessed by CytoTox-1 cell proliferation assay (Promega). The half maximal effective concentration (EC50) and the half maximal toxic concentration (TC50) values were calculated using the GraphPad Prism software.

[1] = tested on: GT1b/3a NS5B chimeric replicon; assay: HCV replicon assay, GT1b/3a NS5B chimeric replicon, transient transfection; type: cell-based, hepatitis C virus
Procedure: as §1
(§3) To generate HCV NS5B chimeric replicons, the GT1 b replicon was used as a backbone with the NS5B gene replaced with the NS5B gene of GT2a, GT3a, GT4a and GT5a derived from clinical isolates. These NS5B genes were cloned into the GT1b backbone and were confirmed by sequencing.
as §2

Huh-7 cells = assay: Toxicity by CytoTox-1 cell proliferation assay (TC50) and selectivity index; type: cell-based; conditions: TC50 by CytoTox-1 cell proliferation assay over replicon EC50, Huh-7 cells
Procedure: as §2

GT1a (H77) HCV replicon = assay: HCV replicon assay, wild type GT1a (H77), luciferase based, stable format; type: cell-based, hepatitis C virus; conditions: Huh-7 cells, 72 hours
Procedure: as §1, §2

[2] = tested on: GT1b/2a NS5B chimeric replicon; assay: HCV replicon assay, GT1b/2a NS5B chimeric replicon, transient transfection; type: cell-based, hepatitis C virus; conditions: read-out: GT2a EC50; GT1b/2a NS5B chimeric replicon, Huh-7 cells, luciferase, 72 hours
Procedure: as §1, §3, §2

[3] = tested on: GT1b/4a NS5B chimeric replicon; assay: HCV replicon assay, GT1b/4a NS5B chimeric replicon, transient transfection; type: cell-based, hepatitis C virus; conditions: read-out: GT4a EC50; GT1b/4a NS5B chimeric replicon, Huh-7 cells, luciferase, 72 hours
Procedure: as §1, §3, §2

[4] = tested on: GT1b/5a NS5B chimeric replicon; assay: HCV replicon assay, GT1b/5a NS5B chimeric replicon, transient transfection; type: cell-based, hepatitis C virus; conditions: read-out: GT5a EC50; GT1b/5a NS5B chimeric replicon, Huh-7 cells, luciferase, 72 hours
Procedure: as §1, §3, §2

[5] = Nucleoside phosphoester stability in simulated gastric fluid; type: in vitro ADME; conditions: simulated gastric fluid pH 1.2, 2 μM, 37° C.
Procedure: Test compounds at 2 μM were incubated at 37° C. with simulated gastric fluid (SGF, 0.2% (w/v) sodium chloride in 0.7% (v/v) hydrochloric acid, deionized water, 0.3% pepsin (w/v), pH 1.2). Duplicate samples were used. Samples were removed at 0, 15, 30, 60, 120, 360 and 1440 min, immediately mixed with cold acetonitrile containing internal standard (IS), and stored at −80° C. before analysis. Omeprazole was used as a positive control. Samples were analyzed by LC/MS/MS method, and disappearance of test compound was assessed by comparison of peak area ratios of analyte/IS and reported as % test compound remaining at each time point.

[6] = Nucleoside phosphoester stability in simulated intestinal fluid; type: in vitro ADME
Procedure: Test compounds at 2 μM were incubated at 37° C. with simulated intestinal fluid (SIF), which contains 0.68% (w/v) monobasic potassium phosphate and 1% (w/v) pancreatin in ultra-pure water (pH 6.8). Duplicate samples were used. Samples were removed at 0, 15, 30, 60, 120, 360 and 1440 min, immediately mixed with cold acetonitrile containing an internal standard (IS), and stored at −80° C. before analysis. Chlorambucil was used as a positive control. Samples were analyzed by a LC/MS/MS method, and disappearance of test compound was assessed by comparison of peak area ratios of analyte/IS and reported as % test compound remaining at each time point.

[7] = Hepatitis C virus, GT1B, Huh-7, 72 h
[8] = Hepatitis C virus, Huh-7, 72 h, read-out: GT3a EC50, GT1b/3a NS5B chimeric replicon, Huh-7 cells, luciferase, 72 hours
[9] = read-out: GT3a EC50, GT1b/3a NS5B chimeric replicon, Huh-7 cells, luciferase, 72 hours

For `CC(C)(C)SSc1ccccc1CCOP1(=O)OC[C@H]2O[C@@H](n3ccc(N)nc3=O)[C@](C)(O)[C@@H]2O1` (single isomer, unassigned) [Compound 10A], the EC50 (GT1b (Con1) HCV replicon; [7]) was 40 nM, the EC50 [1, 8] was 41 nM and the “Selectivity Index (TC50/EC50)” value (Huh-7 cells) was >500.
For `CC(C)(C)SSc1ccccc1CCOP1(=O)OC[C@H]2O[C@@H](n3ccc(N)nc3=O)[C@](C)(N)[C@@H]2O1` (single isomer, unassigned) [Compound 19B], the EC50 (GT1a (H77) HCV replicon) was 858 nM, the EC50 (GT1b (Con1) HCV replicon; 72 hours) was 1030 nM and the EC50 [2] was 780 nM. It also gave an EC50 [1, 9] of 1340 nM, an EC50 [3] of 344 nM and an EC50 [4] of 1350 nM.
In the case of `CC(C)(C)SSc1ccccc1CCOP1(=O)OC[C@H]2O[C@@H](n3ccc(=O)[nH]c3=O)[C@](C)(O)[C@@H]2O1` (stereo partly shown) [Compound 8A], the EC50 (GT1b (Con1) HCV replicon; [7]) is reported as 10 nM, the EC50 [1, 8] is reported as 6 nM and the “Selectivity Index (TC50/EC50)” value (Huh-7 cells) is reported as >500.
For `CC(C)(C)SSc1ccccc1CCOP1(=O)OC[C@H]2O[C@@H](n3ccc(N)nc3=O)[C@](C)(O)[C@@H]2O1` (single isomer, unassigned) [Compound 10B], the EC50 (GT1b (Con1) HCV replicon; 72 hours) was 21 nM, the EC50 [1, 9] was 21 nM and the “Selectivity Index (TC50/EC50)” value (Huh-7 cells) was >500.
For `CC(C)(C)SSCCCCOP1(=O)OC[C@H]2O[C@@H](n3ccc(=O)[nH]c3=O)[C@](C)(F)[C@@H]2O1` (single isomer, unassigned) [Compound 6B], the EC50 (GT1b (Con1) HCV replicon; 72 hours) was 730 nM and the “Selectivity Index (TC50/EC50)” value (Huh-7 cells) was >14.
With `CC(C)(C)SSc1ccccc1CCOP1(=O)OC[C@H]2O[C@@H](n3ccc(=O)[nH]c3=O)[C@](C)(F)[C@@H]2O1` (stereo partly shown) [Compound 7B] the EC50 (GT1b (Con1) HCV replicon; [7]) was 20 nM, the EC50 [1, 8] was 14 nM and the “Selectivity Index (TC50/EC50)” value (Huh-7 cells) was >500.
Work on `CC(C)(C)SSc1ccccc1CCOP1(=O)OC[C@H]2O[C@@H](n3ccc(N)nc3=O)[C@](C)(N)[C@@H]2O1` (single isomer, unassigned) [Compound 19A] yielded an EC50 (GT1a (H77) HCV replicon) of 169 nM, an EC50 (GT1b (Con1) HCV replicon; 72 hours) of 177 nM and an EC50 [2] of 151 nM. For the same compound, the EC50 [1, 9] was 228 nM, the EC50 [3] was 77 nM and the EC50 [4] was 288 nM.
With `CC(C)(C)SSc1ccccc1CCOP1(=O)OC[C@H]2O[C@@H](n3cnc4c(N)nc(N)nc43)[C@](C)(O)[C@@H]2O1` (single isomer, unassigned) [Compound 16B] the EC50 (GT1b (Con1) HCV replicon; 72 hours) was 40 nM, the EC50 [1, 9] was 5 nM and the “Selectivity Index (TC50/EC50)” value (Huh-7 cells) was >250.
For `CC(C)(CCO)SSc1ccccc1CCOP1(=O)OC[C@H]2O[C@@H](n3ccc(=O)[nH]c3=O)[C@](C)(F)[C@@H]2O1` (stereo partly shown) [Compound 18A], the EC50 (GT1b (Con1) HCV replicon; [7]) was 50 nM and the “Selectivity Index (TC50/EC50)” value (Huh-7 cells) was >200.
In the case of `COc1ccc2[nH]c([S+]([O-])Cc3ncc(C)c(OC)c3C)nc2c1` (stereo not shown) [Omeprazole, reference compound], the “% Remaining” value ([5]; 0 min) is reported as 100.00%, the “% Remaining” value ([5]; 15 min) is reported as 79.48% and the “% Remaining” value ([5]; 30 min) is reported as 66.64%. For the same compound, the “% Remaining” value ([5]; 60 min) was 34.79%, the “% Remaining” value ([5]; 120 min) was 33.00% and the “% Remaining” value ([5]; 360 min) was 6.17%. The “% Remaining” value ([5]; 1440 min) was 1.24%.
With `CC(C)(C)SSCCCCOP1(=O)OC[C@H]2O[C@@H](n3ccc(=O)[nH]c3=O)[C@](C)(F)[C@@H]2O1` (single isomer, unassigned) [Compound 6A] the EC50 (GT1b (Con1) HCV replicon; [7]) was 840 nM and the “Selectivity Index (TC50/EC50)” value (Huh-7 cells) was >12.
In the case of `CC(C)(C)SSc1ccccc1CCOP1(=O)OC[C@H]2O[C@@H](n3ccc(N)nc3=O)[C@](C)(F)[C@@H]2O1` (single isomer, unassigned) [Compound 9B], the EC50 (GT1b (Con1) HCV replicon; 72 hours) is reported as 13 nM, the EC50 [1, 9] is reported as 29 nM and the “Selectivity Index (TC50/EC50)” value (Huh-7 cells) is reported as >500. For the same compound, the “% Remaining” value ([5]; 0 min) was 100.00%, the “% Remaining” value ([5]; 15 min) was 95.72% and the “% Remaining” value ([5]; 30 min) was 98.51%. The “% Remaining” value ([5]; 60 min) was 100.39%, the “% Remaining” value ([5]; 120 min) was 92.48% and the “% Remaining” value ([5]; 360 min) was 65.99%. For the same compound, the “% Remaining” value ([5]; 1440 min) was 21.04%, the “% Remaining” value ([6]; simulated gi fluid, 0 h, 2 μM, pH 6.8) was 100.00% and the “% Remaining” value ([6]; simulated gi fluid, 0.25 h, 2 μM, pH 6.8) was 98.51%. The “% Remaining” value ([6]; simulated gi fluid, 0.5 h, 2 μM, pH 6.8) was 91.63%, the “% Remaining” value ([6]; simulated gi fluid, 1 h, 2 μM, pH 6.8) was 99.30% and the “% Remaining” value ([6]; simulated gi fluid, 2 h, 2 μM, pH 6.8) was 97.42%. The “% Remaining” value ([6]; simulated gi fluid, 6 h, 2 μM, pH 6.8) was 72.51% and the “% Remaining” value ([6]; simulated gi fluid, 24 h, 2 μM, pH 6.8) was 33.69%.
For `O=C(O)CCCc1ccc(N(CCCl)CCCl)cc1` [Chlorambucil, reference compound], the “% Remaining” value ([6]; simulated intestinal fluid pH 6.8, 2 μM, 37° C., 0 min) was 100.00%, the “% Remaining” value ([6]; simulated intestinal fluid pH 6.8, 2 μM, 37° C., 15 min) was 81.31% and the “% Remaining” value ([6]; simulated intestinal fluid pH 6.8, 2 μM, 37° C., 30 min) was 64.39%. The “% Remaining” value ([6]; simulated intestinal fluid pH 6.8, 2 μM, 37° C., 60 min) was 34.82%, the “% Remaining” value ([6]; simulated intestinal fluid pH 6.8, 2 μM, 37° C., 120 min) was 5.08% and the “% Remaining” value ([6]; simulated intestinal fluid pH 6.8, 2 μM, 37° C., 360 min) was 0.00%. The “% Remaining” value ([6]; simulated intestinal fluid pH 6.8, 2 μM, 37° C., 1440 min) was 0.00%.
In the case of `CC(C)(C)SSc1ccccc1CCOP1(=O)OC[C@H]2O[C@@H](n3cnc4c(N)nc(N)nc43)[C@](C)(O)[C@@H]2O1` (single isomer, unassigned) [Compound 16A], the EC50 (GT1b (Con1) HCV replicon; [7]) is reported as 20 nM, the EC50 [1, 8] is reported as 6 nM and the “Selectivity Index (TC50/EC50)” value (Huh-7 cells) is reported as >500.
